According to US8053474B2, “Compound with carboxyl acid group and amide group and application thereof” (Corum Inc., priority 2009, dated 2011):

Experiments:
Mushroom Tyrosinase [1] = test: Mushroom Tyrosinase Inhibition Test (Tyrosine base); assay type: biochemical; conditions: Tyrosine base (Tyrosine 5 mg/mL, pH 6.5); sample solution 2% in water, 100 μL in 900 μL substrate; 60 minutes, 492 nm
Description: Mushroom Tyrosinase Inhibition Test (Tyrosine Base): Preparation: Tyrosine (5 mg/mL) were dissolved in pH 6.5 buffer solution. Samples were dissolved in water and prepared the concentration at 2%. Method: 900 μL of Tyrosine solution was added into 100 μL of sample solution (or blank solution) and measured by thermo spectronic 492 nm (Aso or Ab0). 40 μL of mushroom tyrosinase buffer solution was added into mixture. After reaction for 60 minutes, the mixture was measured by thermo spectronic (As60 or Ab60) (FIG. 2). Calculation: [formula]

Mushroom Tyrosinase [2] = test: Mushroom Tyrosinase Inhibition Test (Dopa base); assay type: biochemical; conditions: Dopa base (L-Dopa 1 mg/mL, pH 6.5); sample solution 2% in water, 100 μL in 900 μL substrate; 3 min, 475 nm
Description: Mushroom Tyrosinase Inhibition Test (Dopa Base):
Preparation: L-Dopa (L-3,4-dihydroxyphenylalanine; 1 mg/mL) was dissolved in pH 6.5 buffer solution. Samples were dissolved in water and prepared the concentration at 2%.
Method: 900 μL of L-Dopa solution was added into 100 μL of sample solution (or blank solution) and measured by thermo spectronic 475 nm (Aso or Ab0). 15 μL of mushroom […] buffer solution was added into mixture. After reaction for 3 min, mixture was measured by thermo spectronic (As3 or Ab3) (FIG. 1).

Water Solubility = assay type: physicochemical; conditions: in water

Mushroom Tyrosinase Inhibition (Mushroom Tyrosinase [1]) [%] | Mushroom Tyrosinase Inhibition (Mushroom Tyrosinase [2]) [%] | Water Solubility (Water Solubility) [%] | SMILES
82.9 | 74.3 | – | CN(C)CCNC(=O)CCCCCCCC(=O)O [(I), 8-(2-Dimethylamino-ethylcarbamoyl)-octanoic acid]
77.2 | 45.7 | 22 | CC(C)N(CCNC(=O)CCCCCCCC(=O)O)C(C)C [(II), 8-(2-Diisopropylamino-ethylcarbamoyl)-octanoic acid]
78.4 | 56.3 | 33 | CN(C)CCCNC(=O)CCCCCCCC(=O)O [(III), 8-(3-Dimethylamino-propylcarbamoyl)-octanoic acid]
84.1 | 50.6 | 17 | CN(C)CCNC(=O)CCCCCCCCC(=O)O [(IV), 9-(2-Dimethylamino-ethylcarbamoyl)-nonanoic acid]
99.3 | 60.0 | 29 | CN(C)CCCNC(=O)CCCCCCCCC(=O)O [(V), 9-(3-Dimethylamino-propylcarbamoyl) nonanoic acid]
– | – | <0.5 | O=C(O)CCCCCCCC(=O)O [Azelaic acid, reference compound]
